We go through 17 compounds from ChEMBL document CHEMBL5331048, “Recent progress toward developing axial chirality bioactive compounds” (Eur J Med Chem, 2022).

For assay [1], the system named is Staphylococcus aureus. Kind of assay: Antibacterial activity against methicillin-resistant Staphylococcus aureus assessed as bacterial growth inhibition. It counts as functional.
Another assay concerns HCT-116. Put plainly: Anticancer activity against human HCT-116 cells assessed as cell growth inhibition. The format is functional, cell-based.
Assay [2] concerns Streptococcus iniae. Kind of assay: Potency index, ratio of oxytetracycline MIC to test compound MIC for antibacterial activity against Streptococcus iniae FP 5228. The format is functional.
Assay [3] deals with Streptococcus iniae. Put plainly: Antibacterial activity against Streptococcus iniae FP 5228 assessed as bacterial growth inhibition. It counts as functional.
In another assay the test system is A-375. Kind of assay: Anticancer activity against human A-375 cells assessed as cell growth inhibition measured after 24 hrs by MTT assay. The note with it: A-375, 24 h. It counts as functional, cell-based. For orientation: Formazan colour is commonly taken as a measure of viable cells.
Assay [4] can be described thus: Anticancer activity against human QGP-1 cells assessed as cell growth inhibition. The format is functional, cell-based.
In another assay the test system is Caco-2. Put plainly: Anticancer activity against human Caco-2 cells assessed as cell growth inhibition measured after 72 hrs by MTT assay. It counts as functional, cell-based. As to conditions: Caco-2, 72 h.
The test system of assay [5] is Staphylococcus aureus. Kind of assay: Antibacterial activity against Staphylococcus aureus ATCC 25923 assessed as bacterial growth inhibition. The format is functional, organism-based.
The subject of assay [6] is Bacillus subtilis. Kind of assay: Antibacterial activity against Bacillus subtilis ATCC 6633 assessed as bacterial growth inhibition. It counts as functional, organism-based.
The subject of assay [7] is Bacillus subtilis. Put plainly: Antibacterial activity against Bacillus subtilis SCSIO BS01 assessed as bacterial growth inhibition. The format is functional.
For assay [8], the system named is Staphylococcus aureus. Put plainly: Antibacterial activity against Staphylococcus aureus ATCC 29213 assessed as bacterial growth inhibition. The format is functional.
The test system of another assay is Escherichia coli. Put plainly: Antibacterial activity against Escherichia coli ATCC 25922 assessed as bacterial growth inhibition. The format is functional.
A further assay deals with Bacillus thuringiensis. Put plainly: Antibacterial activity against Bacillus thuringiensis SCSIO BT01 assessed as bacterial growth inhibition. It counts as functional.
The test system of assay [9] is Plasmodium berghei. Kind of assay: Antimalarial activity against Plasmodium berghei ANKA assessed as reduction in parasite growth measured after 24 hrs by 3[H]-hypoxanthine incorporation assay. It counts as functional, organism-based.
Another assay deals with Plasmodium falciparum. Kind of assay: Antimalarial activity against Plasmodium falciparum NF 54 clone A1A9 assessed as reduction in parasite growth measured after 24 hrs by 3[H]-hypoxanthine incorporation assay. It counts as functional, organism-based. As to conditions: NF 54 clone A1A9, 24 h.
Assay [10] deals with Plasmodium berghei. Kind of assay: Antimalarial activity against Plasmodium berghei assessed as reduction in parasite growth. The format is functional, organism-based.
The next assay relates to HGC-27. Kind of assay: Anticancer activity against human HGC-27 cells assessed as cell growth inhibition measured after 24 hrs by CCK-8 assay. It counts as functional, cell-based. As to conditions: HGC-27, 24 h.
Assay [11] can be described thus: Anticancer activity against human Leucocyte assessed as cell break at 2 x 10^-9M measured after 12 hrs. The format is functional. The note with it: dose 2 10^-9M.

Values after ≈ are worked out from the molar mass of the structure shown.

The MIC90 is an inhibitory concentration at the 90% level, which refers to growth in some studies and to a panel of isolates in others. The term IC50 denotes the midpoint of a concentration-inhibition curve. Take `O=C(c1ccccc1O)c1[nH]c(Cl)c(Cl)c1-n1c(C(=O)c2ccccc2O)cc(Cl)c1Cl`: in the assay on Staphylococcus aureus [1], the MIC90 was found to be 0.61 µM (≈ 0.311 µg/mL). Besides, the concentration for half-maximal inhibition (IC50) with HCT-116 was 8.8 µM.

A word on the MIC: it is the lowest concentration that inhibits growth of the organism. For `COC(=O)C[C@@H]1Cc2cc3c(-c4c(OC)cc(O)c5c(O)c6c(cc45)C[C@@H](CC(=O)OC)OC6=O)c(OC)cc(O)c3c(O)c2C(=O)O1`, in the assay on Streptococcus iniae [2], the Ratio is on record as 100. For the same compound, in the assay with Streptococcus iniae [3], the MIC was determined as 0.31 µg/mL (≈ 0.468 µM).

Consider `COc1ccc2ccc(O)c(-c3c(Br)c(C4CC4)nn3P(=O)(c3ccccc3)c3ccccc3)c2c1`, for which, in the assay with A-375, the IC50 amounted to 2.57 µM.

On to `O=C(c1ccccc1O)c1[nH]c(Cl)c(Cl)c1-n1c(Cl)c(Cl)c(Br)c1C(=O)c1ccccc1O`, for which the MIC90 in the assay on Staphylococcus aureus [1] was determined as 1.1 µM (≈ 0.648 µg/mL). In the assay with HCT-116, the IC50 worked out at 9 µM.

With `COC(=O)c1cc(-c2ccc(F)cc2)n(-n2c(C(=O)OC)cc3ccccc32)c1C`, the half-inhibitory concentration (IC50) in [4] turned out to be 18.7 µg/mL (≈ 46.1 µM).

Take `COC(=O)c1cc(-c2cccc(OC)c2)n(-n2c(-c3ccc4ccccc4c3)cc(C(=O)OC)c2C)c1C`: the IC50 in assay [4] turned out to be 18.7 µg/mL (≈ 36.8 µM).

Take `O=C1N[C@@H]2[C@H]3NC(=O)[C@@H]4Cc5cc6ccccc6n5-n5cc(c6ccccc65)C[C@@H]1N[C@H]2[C@@H]3N4`: the IC50 with Caco-2 came to 76 µM.

Consider `COC(=O)c1cc(-c2ccccc2)n(-n2c(-c3ccc4c(c3)OCO4)cc(C(=O)OC)c2C)c1C`, for which the half-inhibitory concentration (IC50) in [4] came to 18.7 µg/mL (≈ 39.6 µM).

As for `COC(=O)[C@@]12Oc3cc(C)c(-c4c(C)cc5c(c4O)C(=O)C4C(O)=CC[C@@H](O)[C@]4(C(=O)OC)O5)c(O)c3C(=O)C1=C(O)CC[C@H]2O` (stereo in doubt; 4), the results for the 50% inhibitory concentration (IC50) in the assay with Staphylococcus aureus [5] and in the assay on Bacillus subtilis [6] were 6 µM and 2.1 µM, respectively.

As to `COC(=O)[C@@]12Oc3cc(C)c(-c4c(C)cc5c(c4O)C(=O)C4C(O)=CC[C@@H](O)[C@]4(C(=O)OC)O5)c(O)c3C(=O)C1=C(O)CC[C@H]2O` (stereo in doubt; 5), the IC50 with Staphylococcus aureus [5] worked out at 18 µM; in the assay with Bacillus subtilis [6] it was 0.7 µM.

With `C[C@@]1(C(=O)O)[C@@H](O)CC[C@]2(C)c3cc4c5ccccc5n(-n5c6ccccc6c6cc7c(cc65)CC[C@H]5[C@](C)(C(=O)O)[C@@H](O)CC[C@]75C)c4cc3CC[C@@H]12` (stereo in doubt; 66), the MIC in the assay with Bacillus subtilis [7] (Bacillus subtilis, SCSIO BS01, read-out: MIC) amounted to 16 µg/mL (≈ 22.1 µM); in the assay on Staphylococcus aureus [8] (Staphylococcus aureus, ATCC 29213, read-out: MIC), 8 µg/mL (≈ 11 µM); in the assay with Escherichia coli (Escherichia coli, ATCC 25922, read-out: MIC), 8 µg/mL (≈ 11 µM); in the assay with Bacillus thuringiensis (Bacillus thuringiensis, SCSIO BT01, read-out: MIC) it was 4 µg/mL (≈ 5.52 µM).

Take `C[C@@]1(C(=O)O)[C@@H](O)CC[C@]2(C)c3cc4c5ccccc5n(-n5c6ccccc6c6cc7c(cc65)CC[C@H]5[C@](C)(C(=O)O)[C@@H](O)CC[C@]75C)c4cc3CC[C@@H]12` (stereo in doubt; 67): the minimum inhibitory concentration (MIC) in the assay with Bacillus subtilis [7] worked out at 16 µg/mL (≈ 22.1 µM); in the assay with Staphylococcus aureus [8], 16 µg/mL (≈ 22.1 µM); with Escherichia coli, 8 µg/mL (≈ 11 µM); in the assay with Bacillus thuringiensis, 8 µg/mL (≈ 11 µM).

`COc1cc(C)c(-c2ccc(O)c3c2C[C@@H](C)N[C@@H]3C)c2cccc(O)c12` [DIONCOPHYLLINE C]: the concentration for half-maximal inhibition (IC50) with Plasmodium berghei [9] turned out to be 0.015 µg/mL (≈ 0.0413 µM); in the assay with Plasmodium falciparum, 0.014 µg/mL (≈ 0.0385 µM).

For the compound `COc1cc(C)cc2c(-c3c(O)cc(O)c4c3C[C@@H](C)N[C@@H]4C)ccc(O)c12` [KORUPENSAMINE A], the IC50 in the assay with Plasmodium berghei [10] is 0.56 µg/mL (≈ 1.48 µM).

For the compound `CN(C)[C@@H]1C(O)=C(C(N)=O)C(=O)[C@@]2(O)C(O)=C3C(=O)c4c(O)cccc4[C@@](C)(O)[C@H]3[C@H](O)[C@@H]12` [OXYTETRACYCLINE], in the assay on Streptococcus iniae [3], the MIC came to 40 µg/mL (≈ 86.9 µM).

For `c1ccc(C(OCCN2CCCCC2)c2ccccc2)cc1` [PERASTINE], the concentration for half-maximal inhibition (IC50) with HGC-27 is 14.4 µM.

As to `COC1=C(N)C(=O)c2nc(-c3nc(C(=O)O)c(C)c(-c4ccc(OC)c(OC)c4O)c3N)ccc2C1=O` [STREPTONIGRIN], the Activity in [11] turned out to be 2.82.
